For 28 compounds, IC50 results are on record in patent publication US8338565B2, “Macrocyclic compounds for inhibition of tumor necrosis factor alpha” (Ensemble Therapeutics Corporation, priority 2008, dated 2012).

Several values for one entry are separate records, joined by “and”; a condition that tells them apart may be missing. Identical values can stand only once.

The target of the first assay is T1, TNFα / TNFα receptor (TNFα R1/Fc) (Homo sapiens, UniProt P01375).
T1 construct: purchased R&D Systems
T1 sequence (P01375 77-233 limits assumed, species assumed): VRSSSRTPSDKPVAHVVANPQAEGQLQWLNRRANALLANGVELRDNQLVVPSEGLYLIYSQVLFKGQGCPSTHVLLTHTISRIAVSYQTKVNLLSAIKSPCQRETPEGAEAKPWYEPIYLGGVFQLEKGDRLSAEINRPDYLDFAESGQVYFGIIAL
Description: Inhibition of binding of TNFα to the TNFα receptor (plate ELISA competition). Particulars: Activity (IC50, inhibition of TNFα binding to TNFα R1/Fc), Table 2. The gist of the method: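 Plates were coated with TNFα at 15 nM. Test compound and 8.33 nM receptor-Fc (PBST, 2% DMSO) were first mixed in solution for 30 min at room temperature, then transferred to the plates for another 30 min. Competition was read by absorbance at 450 nm after HRP anti-human IgG Fc detection with TMB.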
In general terms: An ELISA detects its analyte on a solid surface through an enzyme-linked reagent.
For `O=C1COc2ccc(cc2)C[C@H](C(=O)N[C@H](CCc2ccccc2)C(=O)O)NC(=O)[C@H](CCc2ccccc2)NC(=O)[C@@H](Cc2ccc(-c3ccccc3)cc2)NC(=O)[C@H](Cc2c[nH]c3ccccc23)N1` [Compound 737], the IC50 was < 10 µM. `O=C1COc2ccc(cc2)C[C@H](C(=O)N[C@H](CCc2ccccc2)C(=O)O)NC(=O)[C@H](Cc2c[nH]c3ccccc23)NC(=O)[C@@H](Cc2ccc(-c3ccccc3)cc2)NC(=O)[C@H](Cc2ccncc2)N1` [Compound 740] showed an IC50 of 10 to 30 µM. The same measure, in the same setting: to `O=C1COc2ccc(cc2)C[C@@H](C(=O)N[C@H](CCc2ccccc2)C(=O)O)NC(=O)[C@H](CCc2ccccc2)NC(=O)[C@@H](Cc2ccc(-c3ccccc3)cc2)NC(=O)[C@H](Cc2c[nH]c3ccccc23)N1` [Compound 743] belongs < 10 µM; to `O=C1COc2ccc(cc2)C[C@@H](C(=O)N[C@H](CCc2ccccc2)C(=O)O)NC(=O)[C@H](Cc2c[nH]c3ccccc23)NC(=O)[C@@H](Cc2ccc(-c3ccccc3)cc2)NC(=O)[C@H](Cc2ccncc2)N1` [Compound 745], 10 to 30 µM. The same measure, in the same setting: to `O=C1COc2ccc(cc2)C[C@@H](C(=O)NCc2nnn[nH]2)NC(=O)[C@H](CCc2ccccc2)NC(=O)[C@@H](Cc2ccc(-c3ccccc3)cc2)NC(=O)[C@H](Cc2c[nH]c3ccccc23)N1` [Compound 746] belongs < 10 µM.

The same assay, now with this note: Table 2; read-out: Activity (IC50, inhibition of TNFα binding to TNFα R1/Fc).
Turning to `O=C(O)CCCNC(=O)[C@@H]1Cc2ccc(cc2)OCC(=O)N[C@@H](Cc2c[nH]c3ccccc23)C(=O)N[C@H](Cc2ccc(-c3ccccc3)cc2)C(=O)N[C@@H](CCc2ccccc2)C(=O)N1` [Compound 720], the IC50 is < 10 µM. Still for that read-out and setting: the figure for `O=C(O)CCCNC(=O)[C@@H]1Cc2ccc(cc2)OCC(=O)N[C@@H](Cc2c[nH]c3ccccc23)C(=O)N[C@H](Cc2ccc(-c3ccccc3)cc2)C(=O)N[C@@H](Cc2c[nH]c3ccccc23)C(=O)N1` [Compound 721] is < 10 µM. Still for that read-out and setting: to `O=C(O)CCCNC(=O)[C@@H]1Cc2ccc(cc2)OCC(=O)N[C@@H](Cc2ccncc2)C(=O)N[C@H](Cc2ccc(-c3ccccc3)cc2)C(=O)N[C@@H](Cc2c[nH]c3ccccc23)C(=O)N1` [Compound 722] belongs < 10 µM; to `O=C1COc2ccc(cc2)C[C@@H](C(=O)O)NC(=O)[C@H](CCc2ccccc2)NC(=O)[C@@H](CCc2ccccc2)NC(=O)[C@H](CCc2ccccc2)N1` [Compound 724], < 10 µM; to `O=C1COc2ccc(cc2)C[C@@H](C(=O)O)NC(=O)[C@H](Cc2ccc(-c3ccccc3)cc2)NC(=O)[C@@H](Cc2ccc(-c3ccccc3)cc2)NC(=O)[C@H](CCc2ccccc2)N1` [Compound 725], < 10 µM. Same read-out and setting: the figure for `O=C1COc2ccc(cc2)C[C@@H](C(=O)O)NC(=O)[C@H](Cc2ccc(-c3ccccc3)cc2)NC(=O)[C@@H](Cc2ccc(-c3ccccc3)cc2)NC(=O)[C@H](Cc2cccs2)N1` [Compound 726] is 30 to 100 µM; for `O=C1COc2ccc(cc2)C[C@H](C(=O)O)NC(=O)[C@H](Cc2ccccc2F)NC(=O)[C@@H](Cc2ccc(-c3ccccc3)cc2)NC(=O)[C@H](Cc2c[nH]c3ccccc23)N1` [Compound 728] it is 10 to 30 µM.

`O=C1COc2ccc(cc2)C[C@H](C(=O)O)NC(=O)[C@H](Cc2ccccc2F)NC(=O)[C@@H](Cc2ccc(-c3ccccc3)cc2)NC(=O)[C@H](Cc2ccncc2)N1` [Compound 729]: the IC50 is > 100 µM. In the case of `O=C1COc2ccc(cc2)C[C@H](C(=O)O)NC(=O)[C@H](CCc2ccccc2)NC(=O)[C@@H](Cc2ccc(-c3ccccc3)cc2)NC(=O)[C@H](Cc2c[nH]c3ccccc23)N1` [Compound 730], the IC50 was < 10 µM. The same measure, in the same setting: to `O=C1COc2ccc(cc2)C[C@H](C(=O)O)NC(=O)[C@H](Cc2c[nH]c3ccccc23)NC(=O)[C@@H](Cc2ccc(-c3ccccc3)cc2)NC(=O)[C@H](Cc2c[nH]c3ccccc23)N1` [Compound 731] belongs 10 to 30 µM; to `O=C1COc2ccc(cc2)C[C@H](C(=O)O)NC(=O)[C@H](Cc2c[nH]c3ccccc23)NC(=O)[C@@H](Cc2ccc(-c3ccccc3)cc2)NC(=O)[C@H](Cc2ccncc2)N1` [Compound 732], > 100 µM. On the same count and under the same terms, the figure for `O=C1COc2ccc(cc2)C[C@@H](C(=O)O)NC(=O)[C@H](Cc2ccccc2F)NC(=O)[C@@H](Cc2ccc(-c3ccccc3)cc2)NC(=O)[C@H](Cc2c[nH]c3ccccc23)N1` [Compound 733] is < 10 µM; for `O=C1COc2ccc(cc2)C[C@@H](C(=O)O)NC(=O)[C@H](CCc2ccccc2)NC(=O)[C@@H](Cc2ccc(-c3ccccc3)cc2)NC(=O)[C@H](Cc2c[nH]c3ccccc23)N1` [Compound 734] it is < 10 µM; for `O=C1COc2ccc(cc2)C[C@H](C(=O)N[C@H](CCc2ccccc2)C(=O)O)NC(=O)[C@H](Cc2ccccc2F)NC(=O)[C@@H](Cc2ccc(-c3ccccc3)cc2)NC(=O)[C@H](Cc2c[nH]c3ccccc23)N1` [Compound 735] it is 10 to 30 µM. Consider `O=C1COc2ccc(cc2)C[C@H](C(=O)N[C@H](CCc2ccccc2)C(=O)O)NC(=O)[C@H](Cc2ccccc2F)NC(=O)[C@@H](Cc2ccc(-c3ccccc3)cc2)NC(=O)[C@H](Cc2ccncc2)N1` [Compound 736], for which the IC50 was < 10 µM.

Regarding `O=C1COc2ccc(cc2)C[C@H](C(=O)N[C@H](CCc2ccccc2)C(=O)O)NC(=O)[C@H](CCc2ccccc2)NC(=O)[C@@H](Cc2ccc(-c3ccccc3)cc2)NC(=O)[C@H](Cc2ccncc2)N1` [Compound 738], the IC50 was < 10 µM.

`O=C1COc2ccc(cc2)C[C@H](C(=O)N[C@H](CCc2ccccc2)C(=O)O)NC(=O)[C@H](Cc2c[nH]c3ccccc23)NC(=O)[C@@H](Cc2ccc(-c3ccccc3)cc2)NC(=O)[C@H](Cc2c[nH]c3ccccc23)N1` [Compound 739]: the IC50 was < 10 µM. The same measure, in the same setting: to `O=C1COc2ccc(cc2)C[C@@H](C(=O)N[C@H](CCc2ccccc2)C(=O)O)NC(=O)[C@H](Cc2ccccc2F)NC(=O)[C@@H](Cc2ccc(-c3ccccc3)cc2)NC(=O)[C@H](Cc2c[nH]c3ccccc23)N1` [Compound 741] belongs < 10 µM. Still for that read-out and setting: to `O=C1COc2ccc(cc2)C[C@@H](C(=O)N[C@H](CCc2ccccc2)C(=O)O)NC(=O)[C@H](Cc2ccccc2F)NC(=O)[C@@H](Cc2ccc(-c3ccccc3)cc2)NC(=O)[C@H](Cc2ccncc2)N1` [Compound 742] belongs < 10 µM; to `O=C1COc2ccc(cc2)C[C@@H](C(=O)N[C@H](CCc2ccccc2)C(=O)O)NC(=O)[C@H](Cc2c[nH]c3ccccc23)NC(=O)[C@@H](Cc2ccc(-c3ccccc3)cc2)NC(=O)[C@H](Cc2c[nH]c3ccccc23)N1` [Compound 744], < 10 µM; to `CN1C(=O)COc2ccc(cc2)C[C@@H](C(=O)N[C@H](CCc2ccccc2)C(=O)O)NC(=O)[C@H](Cc2c[nH]c3ccccc23)NC(=O)[C@@H](Cc2ccc(-c3ccccc3)cc2)NC(=O)[C@@H]1Cc1c[nH]c2ccccc12` [Compound 747], < 10 µM.

With `O=C(O)CCCNC(=O)[C@H]1Cc2ccc(cc2)OCC(=O)N[C@@H](Cc2c[nH]c3ccccc23)C(=O)N[C@H](Cc2ccc(-c3ccccc3)cc2)C(=O)N[C@@H](Cc2ccccc2F)C(=O)N1` [compound 713], the IC50 is < 10 µM.

`O=C(O)CCCNC(=O)[C@H]1Cc2ccc(cc2)OCC(=O)N[C@@H](Cc2ccncc2)C(=O)N[C@H](Cc2ccc(-c3ccccc3)cc2)C(=O)N[C@@H](CCc2ccccc2)C(=O)N1` [compound 715]: the IC50 was 10 to 30 µM and > 100 µM.
